Measured values: patent US20240000939A1, “METHODS OF PERSONALIZED PRECONDITIONING FOR CELL THERAPY” (priority 2021, published 2024)
Entries after “also recorded” stand apart in the source; their conditions may differ.

Experiments:
R/R B-cell ALL (B-ALL) = assay: Retrospective PRWCC analysis: response, relapse, composite endpoint (relapse or loss of BCA) and overall survival after tisagenlecleucel; format: in vivo, human; details: for HR, overall survival, patients with high pre-infusion disease burden: sub-optimal fludarabine exposure
[1] = Retrospective PRWCC analysis: toxicity (CRS, neurotoxicity/ICANS, infection, neutropenia, cause of death) after tisagenlecleucel; format: in vivo, human
Experimental: Study Design. A retrospective analysis of pediatric and young adult patients with R/R B-ALL as part of the Pediatric Real-World CAR Consortium (PRWCC; n=15 centers) was conducted. Two hundred (n=200) patients underwent collection/manufacture for planned standard-of-care CD19-specific CAR T cell therapy (tisagenlecleucel).
Outcomes of interest. The main outcomes of interest were overall survival (OS), cumulative incidence of relapse (CIR), and the cumulative incidence of a composite endpoint (relapse or loss of BCA). Other outcomes of interest were response rates, cytokine release syndrome (CRS), and immune effector cell associated neurotoxicity syndrome (ICANS). Complete remission (CR) was defined as ≤5% bone marrow blasts by morphology, absence of circulating lymphoblasts, and no evidence of extramedullary disease. MRD negativity was defined as <0.01% abnormal B cells assessed by flow cytometry. Relapse was defined as any (medullary or extramedullary) evidence of hematologic, cytogenetic, and/or molecular recurrence of primary disease. CD19-positive B cell recovery was defined as any detectable CD19-positive B cells ([…]) on a peripheral blood lymphocyte flow cytometry panel. Toxicity grading was described according to ASTCT (Lee et al., Biol Blood Marrow Transplant. 04 2019; 25 (4):625-638) for CRS and ICANS. Additionally, patients were further delineated based on their disease burden: high disease burden (≥5% lymphoblasts, CNS3 disease and/or isolated EM disease), and no (undetectable) or low disease burden (<5% lymphoblasts, ≤CNS2 disease, and/or no detectable EM disease) based off the previous PRWCC analysis (Schultz et al., Blood. 2020; 136 (Supplement 1):14-15). The fludarabine exposure, area under the curve (AUC), for each patient was calculated using a population PK model as previously described in Langenhorst et al., Clin Pharmacokinet. May 2019; 58 (5):627-637. The patient variables required to calculate an estimated fludarabine exposure include estimated GFR (using either the Cockroft-Gault or Schwartz equation depending on age), actual body weight, height, and dosage of fludarabine utilized where actual body weight and estimated GFR are the best predictors of fludarabine PK (Langenhorst et al., Clin Pharmacokinet. May 2019; 58 (5):627-637).
Statistical Analysis. For all analyses, tisagenlecleucel infusion date was considered time zero (0). The impact of different factors on the chance of response was assessed through Mann-Whitney-Wilcoxon test for continuous variables, Chi-squared or Fisher's exact test for categorical variables (univariable analysis), and logistic regression (multivariable analysis). OS for all treated patients was defined as the time from infusion to death from all causes. OS in responding patients was defined as time from day of response (day 28 from CAR infusion) to death from all causes. Patients alive were censored at their last follow-up date. Time-to-relapse was defined as the time from the date of infusion to the date of disease relapse, while time-to-composite endpoint was defined as the time from the date of infusion to the date of either disease relapse or loss of BCA, whichever came first. For both endpoints, patients alive without disease relapse (and loss of BCA for composite endpoint) were censored at their date of last follow-up. Death and allo-HCT without disease relapse (and loss of BCA) were considered competing events. […]

[2] = Estimated fludarabine exposure (AUC) calculated with a population PK model; set-up: species or system human
[3] = multivariable, AUC <13.8 (sub-optimal) vs ≥13.8 mg*hr/L (ref), responding patients
[4] = univariable, AUC <13.8 vs ≥13.8 mg*hr/L (ref)
[5] = univariable, AUC <13.8 vs ≥13.8 mg*hr/L (ref), responding patients

tisagenlecleucel
12-month OS (R/R B-cell ALL (B-ALL); Example 1): 75%
12-month cumulative incidence of relapse in responders (R/R B-cell ALL (B-ALL); Example 1): 39.2%
12-month CIR in responding patients (R/R B-cell ALL (B-ALL); Example 2): 36.4%
12-month OS (R/R B-cell ALL (B-ALL); Example 2, entire cohort): 75.1%
24-month OS (R/R B-cell ALL (B-ALL); Example 2, entire cohort): 56.5%
cumulative incidence of composite endpoint (relapse or loss of BCA) (R/R B-cell ALL (B-ALL); at 12-months, responding patients): 55.2%
loss of BCA post CAR (R/R B-cell ALL (B-ALL); n=152): (34%)
relapsed post CAR (R/R B-cell ALL (B-ALL); n=152): (36%)
CD19-negative relapse (R/R B-cell ALL (B-ALL); share of relapses post CAR): (45%)
CD19-positive relapse (R/R B-cell ALL (B-ALL); share of relapses post CAR): (55%)
severe neurotoxicity (grade 3 or higher) ([1]; all patients, 12/152): 8%
severe CRS (sCRS; grade 3 or higher) ([1]; all patients, 33/152): 22%
neurotoxicity ([1]; all patients, 36/152): 24%
infection post CAR T cell therapy ([1]; all patients, 57/152): 38%
Grade 4 neutropenia ([1]; all patients, 97/148): 66%
CRS ([1]; all patients, 97/152): 64%
CRS grade 1 ([1]; n=152): (24%)
CRS grade 2 ([1]; n=152): (18%)
CRS grade 3 ([1]; n=152): (11%)
CRS grade 4 ([1]; n=152): (10%)
CRS grade 5 ([1]; n=152): (1%)
CRS grade none ([1]; n=152): (36%)
Neurotoxicity grade 1 ([1]; n=152): (11%)
Neurotoxicity grade 2 ([1]; n=152): (5%)
Neurotoxicity grade 3 ([1]; n=152): (5%)
Neurotoxicity grade 4 ([1]; n=152): (2%)
Neurotoxicity grade 5 ([1]; n=152): (1%)
Neurotoxicity grade none ([1]; n=152): (76%)
Cause of death: ARDS/cardiac arrest ([1]; share of deaths): (2%)
Cause of death: CRS ([1]; share of deaths): (2%)
Cause of death: Infection ([1]; share of deaths): (10%)
Cause of death: Leukemia ([1]; share of deaths): (74%)
Cause of death: Neurotoxicity ([1]; share of deaths): (2%)
Cause of death: Transplant related ([1]; share of deaths): (7%)

Nc1nc(F)nc2c1ncn2[C@@H]1O[C@H](CO)[C@@H](O)[C@@H]1O [fludarabine, reference compound]
fludarabine AUC threshold of interest for disease relapse ([2]; Example 1, exposure analyzed as continuous variable (FIG. 1)): 13800 ng·h/mL
optimal fludarabine exposure (AUC) ([2]; Example 2, where hazard ratio curve for CIR crosses HR=1): ≥ 13800 ng·h/mL
odds ratio of response by cumulative Flu AUC (mg*hr/L) (R/R B-cell ALL (B-ALL); multivariable analysis, AUC as continuous variable): 0.81
HR, overall survival in responding patients (R/R B-cell ALL (B-ALL); multivariable, AUC <13.8 (sub-optimal) vs ≥13.8 mg*hr/L (ref)): 1.97
HR, overall survival in all treated patients (R/R B-cell ALL (B-ALL); multivariable, AUC <13.8 (sub-optimal) vs ≥13.8 mg*hr/L (ref), entire cohort): 1.53
HR, cumulative incidence of composite endpoint (relapse or loss of B-cell aplasia) (R/R B-cell ALL (B-ALL); [3]): 1.96
HR, cumulative incidence of relapse (R/R B-cell ALL (B-ALL); [3]): 2.45
HR, overall survival, patients with high pre-infusion disease burden (R/R B-cell ALL (B-ALL); all treated patients): 2.27
HR, overall survival, patients with high pre-infusion disease burden (R/R B-cell ALL (B-ALL); responding patients only): 3.50
HR, overall survival in all treated patients (R/R B-cell ALL (B-ALL); [4]): 1.51
HR, overall survival in responding patients (R/R B-cell ALL (B-ALL); [4]): 2.25
HR, cumulative incidence of composite endpoint (relapse or loss of B-cell aplasia) (R/R B-cell ALL (B-ALL); [5]): 1.77
HR, cumulative incidence of relapse (R/R B-cell ALL (B-ALL); [5]): 1.95
patients who died from infection ([1]; all received suboptimal fludarabine): four
infection risk with increased fludarabine exposure (≥13.8 mg*hr/L) ([1]; in vivo): no apparent increased infection risk
association of optimal fludarabine exposure with toxicity (CRS, neurotoxicity) ([1]; neurotoxicity limited to ICANS graded patients): not associated with increased CRS or neurotoxicity; also recorded: No increase in toxicity
ICANS grade ≥3 (sICANS) ([1]; optimal flu (≥13.8 mg*hr/L), 5/67): 7%
ICANS grade ≥3 (sICANS) ([1]; optimal flu (≥13.8 mg*hr/L), 5/67, listed as flu): (7%)
ICANS grade ≥1 ([1]; optimal flu (≥13.8 mg*hr/L), 15/67): 22%
ICANS grade ≥1 ([1]; optimal flu (≥13.8 mg*hr/L), 15/67, listed as flu): (22%)
CRS grade ≥3 (sCRS) ([1]; optimal flu (≥13.8 mg*hr/L), 18/102): 18%
CRS grade ≥3 (sCRS) ([1]; optimal flu (≥13.8 mg*hr/L), 18/102, listed as flu): (18%)
infection post CAR T cell therapy ([1]; optimal fludarabine exposure, 36/102): 35%
Grade 4 neutropenia ([1]; patients receiving optimal fludarabine): 65%
Grade 4 neutropenia ([1]; patients receiving suboptimal fludarabine): 67%
ICANS grade ≥3 (sICANS) ([1]; sub-optimal flu (<13.8 mg*hr/L), 4/31): 13%
ICANS grade ≥3 (sICANS) ([1]; sub-optimal flu (<13.8 mg*hr/L), 4/31, listed as flu): (13%)
ICANS grade ≥1 ([1]; sub-optimal flu (<13.8 mg*hr/L), 9/31): 29%
ICANS grade ≥1 ([1]; sub-optimal flu (<13.8 mg*hr/L), 9/31, listed as flu): (29%)
CRS grade ≥3 (sCRS) ([1]; sub-optimal flu (<13.8 mg*hr/L), 15/50): 30%
CRS grade ≥3 (sCRS) ([1]; sub-optimal flu (<13.8 mg*hr/L), 15/50, listed as flu): (30%)
infection post CAR T cell therapy ([1]; suboptimal fludarabine exposure, 21/50): 42%
